Measured values: publication PMC9229798, “Antioxidant Activity and Cytotoxicity of Aromatic Oligosulfides” (Molecules, 2022)
“And” between values parts separate entries of the source, which are not always exact repeats. Equal entries are not always repeated.

Assays:
[1] = CUPRAC assay (cupric reducing antioxidant capacity); details: Trolox equivalents; compound 0.5 mM, 30 min
Protocol: Antioxidant activity can be evaluated by the CUPRAC test (cupric reducing antioxidant capacity) based on the ability of the compound to reduce Cu^2+ in complex with 2,9-dimethyl-1,10-phenanthroline (neocuproin). The antioxidant capacity of compounds 1–6 in the CUPRAC test was measured in equivalents of the water-soluble analogue of vitamin E—Trolox (TEACCUPRAC) (Table 2). […] The TEACCUPRAC values of disulfides 4 and 6 were quite close and indicated the manifestation of antioxidant activity mainly due to the presence of HO-groups. The slightly lower activity of compound 4 was explained by the absence of tert-butyl groups in its structure.
Neocuproine (2,9-dimethyl-1,10-phenanthroline) and Trolox were used with no further purification. The method proposed by Apak et al. was used with slight modification. For these measurements, 0.05 mL of CuCl2 solution (0.01 M), 0.05 mL of MeOH neocuproine solution (7.5 mM) and 0.05 mL of ammonium acetate buffer solution (1 M) were added to a test tube, followed by mixing with the 0.05 mL tested compounds (0.5 mM). The mixtures were kept at room temperature for 30 min. Absorbance was measured at 450 nm against a reagent blank. The results were presented in Trolox equivalents (Trolox equivalent antioxidant capacity, TEAC) obtained using absorbance data, and the linear calibration curve was plotted as absorbance vs. Trolox concentration.

[2] = Ferrous ions (Fe2+) chelating activity (FIC); details: for IC50: Fe2+ chelating activity; for FIC, % of Inhibition: compound 5 mM, ferrozine–Fe2+ complex formation
Text: Despite the important biological role of iron, it can cause various pathological diseases, such as neurodegenerative, liver and heart diseases, cancer, and diabetes. In addition, it is able to catalyze the Fenton reaction and lead to the formation of a highly reactive hydroxyl radical. In this regard, the process of transition metal chelation was studied as one of the possible mechanisms of the action of antioxidants. This assay was based on the reaction of binding Fe^2+ ions by the studied compounds under moderately acidic conditions (pH = 6). Unreacted Fe^2+ ions reacted with ferrozine to form a stable dark violet colored complex. […] The chelation of ferrous ions by compounds was estimated by method of Dinis et al.. Briefly, 10 μL of 2 mM FeCl2 was added to 20 μL of the investigated compound (5 mM) and 150 μL of EtOH. The reaction was initiated by the addition of 0.04 mL of 5 mM ferrozine solution. The mixture was left to stand at 35 °C for 10 min. The absorbance of the solution was thereafter measured at 562 nm. The percentage inhibition of ferrozine–Fe^2+ complex formation was calculated as [(A0 − As)/[…]] × 100, where A0 is the absorbance of the control, and As is the absorbance of the compound/standard. Na2EDTA was used as the positive control.

[3] = LOOH accumulation in non-enzymatic peroxide oxidation of oleic acid; details: 65 °C; for LOOH, k0/k1 (relative rate constant of LOOH formation): 1 mmol/L additive, 3 h
Protocol: (§1) The total antioxidant activity of compounds 1–6 during the oxidation of oleic acid with atmospheric oxygen at 65 °C for 3 h was determined by standard methods according to the level of accumulation of the main metabolites. Hydroperoxides as primary products (LOOH) and secondary LPO carbonyl products formed colored complexes with thiobarbituric acid (TBARS).
(§2) The kinetics of LOOH and TBARS formation was similar in the control test and in the presence of the studied compounds. The exponential kinetic curves of LOOH accumulation in oleic acid corresponded to the equation CLOOH = a × e^kt with correlation coefficients close to 1. It indicated a pseudo-first order of reaction in the substrate, inherent in a radical process with degenerate chain branching (Figure 2). The kinetic curves of secondary carbonyl products were linear and corresponded to the equation CTBARS = kt + b, with correlation coefficients close to 1 (Figure 3).
The determination of oleic acid oxidation level was performed by the kinetic measurement of the total concentration of the corresponding isomeric LOOH using iodometric titration. The oxidation of constant volume of the acid (15 mL) was carried out in a thermostatic cell using an air flow at 65 °C during 3 h. The oxidation proceeded in the conditions, the oxidation rate was independent of the air volume passing through the cell.
The concentrations of the additives were 1 mM compared with the initial concentration of LOOH in the reaction mixture. Oleic acid (1 mL), CHCl3 (12 mL), glacial AcOH (18 mL), and freshly prepared cold-saturated KI solution (1 mL) were placed in a flask and shaken for 2 min. Then distilled water (100 mL) and a 1% starch solution (1 mL) were added and the resulting mixture was immediately titrated with Na2S2O3 solution (0.01 N). Iodine released in an amount equivalent to that of LOOH was titrated with a standard thiosulfate solution. At the same time, a control test for reagents was carried out: all the reagents except for oleic acid were added to the flask. The LOOH concentration was calculated according to the following formula:
[LOOH] = [(Vs − Vc) × 0.001269 × K × 100]/m, where vs. is the volume of 0.01 N Na2S2O3 solution, consumed during the titration of working sample, mL; Vc is the volume of 0.01 N Na2S2O3 solution, consumed during the titration of control, mL; K is the conversion factor to exactly 0.01 N Na2S2O3 solution; m is the mass of studied oleic acid; and 0.001269 is the amount of I2 expressed in g, equivalent to 1 mL of 0.01 N Na2S2O3 solution. The [LOOH, mmol/L] content equal to 1% corresponded to 78.7 mM of active O2 per 1 L of lipids.

[4] = TBARS accumulation in oleic acid oxidation; details: 1 mmol/L additive, 65 °C, 3 h
Protocol: as §1, §2
The accumulation rate for the final oxidation products (TBARS) was determined according to a modified standard method. Samples (0.01 mL) of oleic acid were taken from the thermostat every 30 min. They were introduced into a test tube containing a mixture of Tris buffer (0.8 mL), distilled water (1.2 mL), and freshly prepared thiobarbituric acid solution (0.8%, 1 mL). The tube was placed for 10 min in a boiling water bath, and after cooling, the absorption of the samples was measured in comparison with that of the control at λ = 532 nm. A similar mixture, but without added oleic acid, was used as the control. The concentration of carbonyl compounds was calculated according to the formula:
[TBARS] = (E × 3)/0.156, where [TBARS] is the content of carbonyl compounds, nM; E is the extinction of a sample relative to the control; 3 is the sample volume, mL; and 0.156 is the extinction of malondialdehyde (1 nmol) dissolved in 1 mL at λ = 532 nm.

## c1ccc(SSSc2ccccc2)cc1 [Compound 1, diphenyl trisulfide]
[1]
  TEAC CUPRAC: non active
[2]
  IC50: 7.76 ± 0.02 mM
  FIC, % of Inhibition: 25.8 ± 1.1%
[3]
  LOOH, k0/k1 (relative rate constant of LOOH formation): 0.78 ± 0.15
[3]; after 3 h incubation of oleic acid
  LOOH accumulation, % of inhibition: 22.5%
[4]
  TBARS, % Inhibition: 21.0 ± 0.18%

## COc1ccccc1SSc1ccccc1OC [Compound 2, bis(2-methoxyphenyl) disulfide]
[1]
  TEAC CUPRAC: non active
[2]
  IC50: > 10 mM
  FIC, % of Inhibition: 7.1 ± 0.2%
[3]
  LOOH, k0/k1 (relative rate constant of LOOH formation): 0.86 ± 0.11
[4]
  TBARS, % Inhibition: 42.9 ± 0.76%

## COc1ccc(SSc2ccc(OC)c(OC)c2)cc1OC [Compound 3, bis(3,4-dimethoxyphenyl) disulfide]
[1]
  TEAC CUPRAC: 0.06 ± 0.01
[2]
  IC50: > 10 mM
  FIC, % of Inhibition: 7.5 ± 0.3%

## Oc1ccc(SSc2ccc(O)cc2)cc1 [Compound 4, 4,4′-dihydroxydiphenyl disulfide]
[1]
  TEAC CUPRAC: 1.8 and 1.80 ± 0.06
[2]
  IC50: 5.62 ± 0.04 mM
  FIC, % of Inhibition: 47.2 ± 1.5%
[3]
  LOOH, k0/k1 (relative rate constant of LOOH formation): 0.61 ± 0.03
[4]
  TBARS, % Inhibition: 39.0 ± 0.49%

## c1ccc(SSc2ccccc2)cc1 [Compound 5, diphenyl disulfide]
[2]
  IC50: 3.74 ± 0.02 mM

## CC(C)(C)c1cc(SSc2cc(C(C)(C)C)c(O)c(C(C)(C)C)c2)cc(C(C)(C)C)c1O [Compound 6, bis(3,5-di-tert-butyl-4-hydroxyphenyl) disulfide]
[2]
  IC50: 6.1 ± 0.01 mM
